pEC50: −log10 of the molar value.
The molecules below were run on SKBr3 cell Hsp90 (assay: EC50 for Hsp90 binding in SKBr3 cell lysate). Conditions: read-out: EC50, binding to SKBr3 cell Hsp90.

Point of comparison: Nc1ncnc2c1nc(Sc1cc3c(cc1I)OCCO3)n2CCCn1ccnc1 [Compound 5A-4, 9-(3-(1H-imidazol-1-yl)propyl)-8-(7-iodo-2,3-dihydrobenzo[b][1,4]dioxin-6-ylthio)-9H-purin-6-amine], pEC50 7.20. Against it:
- CC(C)CNCCN1C(Sc2cc3c(cc2I)OCCO3)=NC2C(N)=NC=NC21 (stereo not drawn) [Compound 5A-2, 8-(7-Iodo-2,3-dihydrobenzo[b][1,4]dioxin-6-ylthio)-9-(2-(isobutylamino)ethyl)-5,9-dihydro-4H-purin-6-amine] — 0.26 log units higher, 7.46
- CC(C)NCCCn1c(Sc2cc3c(cc2-c2ccc(C=O)o2)OCO3)nc2c(N)ncnc21 [Compound 4C-6, 5-(6-(6-amino-9-(3-(isopropylamino)propyl)-9H-purin-8-ylthio)benzo[d][1,3]dioxol-5-yl)furan-2-carbaldehyde] — 0.35 log units lower, 6.85
- CC(C)NCCCn1c(Sc2cc3c(cc2-c2cc[nH]c2)OCO3)nc2c(N)ncnc21 [Compound 4H-3, 8-(6-(1H-pyrrol-3-yl)benzo[d][1,3]dioxol-5-ylthio)-9-(3-(isopropylamino)propyl)-9H-purin-6-amine] — 0.41 log units lower, 6.79
- CC(C)NCCCn1c(Sc2cc3c(cc2-c2ccc(Br)cc2)OCO3)nc2c(N)ncnc21 [Compound 4A-7, 8-(6-(4-bromophenyl)benzo[d][1,3]dioxol-5-ylthio)-9-(3-(isopropylamino)propyl)-9H-purin-6-amine] — 1.34 log units lower, 5.86
- CC(C)NCCCn1c(Sc2cc3c(cc2-c2cc[nH]n2)OCCO3)nc2c(N)ncnc21 [Compound 5D-2, 8-((7-(1H-pyrazol-3-yl)-2,3-dihydrobenzo[b][1,4]dioxin-6-yl)thio)-9-(3-(isopropylamino)propyl)-9H-purin-6-amine] — 0.75 log units higher, 7.95
- Cc1ccc(-c2cc3c(cc2Sc2nc4c(N)ncnc4n2CCNCC(C)(C)C)OCO3)o1 [Compound 4C-16, 8-(6-(5-methylfuran-2-yl)benzo[d][1,3]dioxol-5-ylthio)-9-(2-(neopentylamino)ethyl)-9H-purin-6-amine] — 0.79 log units higher, 7.99
- CC(C)NCCCn1c(Sc2cc3c(cc2-c2ncco2)OCCO3)nc2c(N)ncnc21 [Compound 5B-34, 9-(3-(isopropylamino)propyl)-8-((7-(oxazol-2-yl)-2,3-dihydrobenzo[b][1,4]dioxin-6-yl)thio)-9H-purin-6-amine] — 1.26 log units higher, 8.46
- CC(C)NCCCn1c(Sc2cc3c(cc2C2C=COC2)OCO3)nc2c(N)ncnc21 (stereo not drawn) [Compound 4C-41, 8-(6-(2,3-dihydrofuran-3-yl)benzo[d][1,3]dioxol-5-ylthio)-9-(3-(isopropylamino)propyl)-9H-purin-6-amine] — 1.52 log units lower, 5.68
- CC(C)NCCCn1c(Sc2cc3c(cc2-c2ccncc2)OCO3)nc2c(N)ncnc21 [Compound 4F-1, 9-(3-(isopropylamino)propyl)-8-(6-(pyridin-4-yl)benzo[d][1,3]dioxol-5-ylthio)-9H-purin-6-amine] — 2.18 log units lower, 5.02
- CC(C)NCCCn1c(Sc2cc3c(cc2-c2ccnn2C)OCO3)nc2c(N)ncnc21 [Compound 4G-4, 9-(3-(isopropylamino)propyl)-8-(6-(1-methyl-1H-pyrazol-5-yl)benzo[d][1,3]dioxol-5-ylthio)-9H-purin-6-amine] — lower, < 6.52
- CC(C)NCCCn1c(Sc2cc3c(cc2-c2cnoc2)OCO3)nc2c(N)ncnc21 [Compound 4C-10, 9-(3-(isopropylamino)propyl)-8-(6-(isoxazol-4-yl)benzo[d][1,3]dioxol-5-ylthio)-9H-purin-6-amine] — lower, < 6.52
- COc1ccc(-c2cc[nH]n2)c(Sc2nc3c(N)ncnc3n2CCNCC(C)(C)C)c1 [Compound 7E-6, 8-(5-methoxy-2-(1H-pyrazol-3-yl)phenylthio)-9-(2-(neopentylamino)ethyl)-9H-purin-6-amine] — 0.29 log units higher, 7.49
- NCCCCCCNCCCn1c(Sc2cc3c(cc2-c2cc(C(F)(F)F)cc(C(F)(F)F)c2)OCO3)nc2c(N)ncnc21 [Compound 4A-4, N1-(3-(6-amino-8-(6-(3,5-bis(trifluoromethyl)phenyl)benzo[d][1,3]dioxol-5-ylthio)-9H-purin-9-yl)propyl)hexane-1,6-diamine] — 2.38 log units lower, 4.82
- CC(C)(C)CNCCn1c(Sc2cc3c(cc2-c2cccs2)OCO3)nc2c(N)ncnc21 [Compound 4D-3, 9-(2-(neopentylamino)ethyl)-8-(6-(thiophen-2-yl)benzo[d][1,3]dioxol-5-ylthio)-9H-purin-6-amine] — 0.53 log units higher, 7.73
- CC(C)NCCCn1c(Sc2cc3c(cc2-c2ccco2)OCO3)nc2c(N)ncnc21 [Compound 4C-1, 8-(6-(furan-2-yl)benzo[d][1,3]dioxol-5-ylthio)-9-(3-(isopropylamino)propyl)-9H-purin-6-amine] — 0.46 log units higher, 7.66
- CC(C)(C)CNCCN1C(Sc2cc3c(cc2I)OCCO3)=NC2C(N)=NC=NC21 (stereo not drawn) [Compound 5A-3, 8-(7-Iodo-2,3-dihydrobenzo[b][1,4]dioxin-6-ylthio)-9-(2-(neopentylamino)ethyl)-5,9-dihydro-4H-purin-6-amine] — 0.26 log units higher, 7.46
- CC(C)NCCCn1c(Sc2cc3c(cc2-c2ccc(C(C)(C)C)cc2)OCO3)nc2c(N)ncnc21 [Compound 4A-2, 8-(6-(4-tert-butylphenyl)benzo[d][1,3]dioxol-5-ylthio)-9-(3-(isopropylamino)propyl)-9H-purin-6-amine] — 2.00 log units lower, 5.20
- CC(C)NCCCn1c(Sc2cc3c(cc2-c2cccs2)OCO3)nc2c(N)ncnc21 [Compound 4D-1, 9-(3-(isopropylamino)propyl)-8-(6-(thiophen-2-yl)benzo[d][1,3]dioxol-5-ylthio)-9H-purin-6-amine] — within 0.2 log units, 7.10
- CC(C)NCCCn1c(Sc2cc3c(cc2I)OCCO3)nc2c(N)ncnc21 [Compound 5A-1, 8-(7-Iodo-2,3-dihydrobenzo[b][1,4]dioxin-6-ylthio)-9-(3-(isopropylamino)propyl)-9H-purin-6-amine] — 0.26 log units higher, 7.46
- COc1ccc(-c2cccs2)c(Sc2nc3c(N)ncnc3n2CCNCC(C)(C)C)c1 [Compound 7D-3, 8-(5-methoxy-2-(thiophen-2-yl)phenylthio)-9-(2-(neopentylamino)ethyl)-9H-purin-6-amine] — 0.58 log units lower, 6.62
- CC(C)NCCCn1c(Sc2cc3c(cc2-c2nccs2)OCO3)nc2c(N)ncnc21 [Compound 4D-16, 9-(3-(isopropylamino)propyl)-8-(6-(thiazol-2-yl)benzo[d][1,3]dioxol-5-ylthio)-9H-purin-6-amine] — within 0.2 log units, 7.33
- CC(C)NCCCn1c(Sc2cc3c(cc2-c2ccc[nH]2)OCO3)nc2c(N)ncnc21 [Compound 4H-1, 8-(6-(1H-pyrrol-2-yl)benzo[d][1,3]dioxol-5-ylthio)-9-(3-(isopropylamino)propyl)-9H-purin-6-amine] — 1.07 log units lower, 6.13
- CC(C)NCCCn1c(Sc2cc3c(cc2-c2cn[nH]c2)OCO3)nc2c(N)ncnc21 [Compound 4G-1, 8-(6-(1H-pyrazol-4-yl)benzo[d][1,3]dioxol-5-ylthio)-9-(3-(isopropylamino)propyl)-9H-purin-6-amine] — 1.21 log units lower, 5.99
- COc1ccc(-c2ccco2)c(Sc2nc3c(N)ncnc3n2CCNCC(C)(C)C)c1 [Compound 7C-13, 8-(2-(furan-2-yl)-5-methoxyphenylthio)-9-(2-(neopentylamino)ethyl)-9H-purin-6-amine] — within 0.2 log units, 7.08
- CC(C)NCCCn1c(Sc2cc3c(cc2-c2ccc(C=O)cc2)OCO3)nc2c(N)ncnc21 [Compound 4A-8, 4-(6-(6-amino-9-(3-(isopropylamino)propyl)-9H-purin-8-ylthio)benzo[d][1,3]dioxol-5-yl)benzaldehyde] — lower, < 5.52
- CC(C)NCCCn1c(Sc2cc3c(cc2C2CC=CO2)OCO3)nc2c(N)ncnc21 (stereo not drawn) [Compound 4C-40, 8-(6-(2,3-dihydrofuran-2-yl)benzo[d][1,3]dioxol-5-ylthio)-9-(3-(isopropylamino)propyl)-9H-purin-6-amine] — 0.91 log units lower, 6.29
- CC(C)NCCCn1c(Sc2cc3ccccc3cc2I)nc2c(N)ncnc21 [Compound 6B-25, 8-(3-iodonaphthalen-2-ylthio)-9-(3-(isopropylamino)propyl)-9H-purin-6-amine] — within 0.2 log units, 7.01
- CC(C)NCCCn1c(Sc2cc3c(cc2C2C=CCC2)OCO3)nc2c(N)ncnc21 (stereo not drawn) [Compound 4I-12, 8-(6-(cyclopent-2-enyl)benzo[d][1,3]dioxol-5-ylthio)-9-(3-(isopropylamino)propyl)-9H-purin-6-amine] — 0.80 log units lower, 6.40
- CC(C)NCCCn1c(Sc2cc3c(cc2C2C=CCN2)OCO3)nc2c(N)ncnc21 (stereo not drawn) [Compound 4H-7, 8-(6-(2,5-dihydro-1H-pyrrol-2-yl)benzo[d][1,3]dioxol-5-ylthio)-9-(3-(isopropylamino)propyl)-9H-purin-6-amine] — 2.63 log units lower, 4.57
- CC(C)NCCCn1c(Sc2cc3c(cc2-c2ccccc2)OCO3)nc2c(N)ncnc21 [Compound 4A-1, 9-(3-(isopropylamino)propyl)-8-(6-phenylbenzo[d][1,3]dioxol-5-ylthio)-9H-purin-6-amine] — 1.01 log units lower, 6.19
- CC(C)NCCCn1c(Sc2cc3c(cc2-c2cc[nH]n2)OCO3)nc2c(N)ncnc21 [Compound 4G-6, 8-(6-(1H-pyrazol-3-yl)benzo[d][1,3]dioxol-5-ylthio)-9-(3-(isopropylamino)propyl)-9H-purin-6-amine] — 1.06 log units higher, 8.26
- CC(C)(C)CNCCn1c(Sc2cc3c(cc2-c2cc[nH]n2)OCO3)nc2c(N)ncnc21 [Compound 4G-9, 8-(6-(1H-pyrazol-3-yl)benzo[d][1,3]dioxol-5-ylthio)-9-(2-(neopentylamino)ethyl)-9H-purin-6-amine] — 1.06 log units higher, 8.26
- CC(C)(C)CNCCn1c(Sc2cc3c(cc2-c2cc[nH]c2)OCO3)nc2c(N)ncnc21 [Compound 4H-4, 8-(6-(1H-pyrrol-3-yl)benzo[d][1,3]dioxol-5-ylthio)-9-(2-(neopentylamino)ethyl)-9H-purin-6-amine] — 0.41 log units higher, 7.61
- CC(C)NCCCn1c(Sc2cc3c(cc2-c2ccoc2)OCO3)nc2c(N)ncnc21 [Compound 4C-2, 8-(6-(furan-3-yl)benzo[d][1,3]dioxol-5-ylthio)-9-(3-(isopropylamino)propyl)-9H-purin-6-amine] — within 0.2 log units, 7.07
- CC(C)(C)CNCCn1c(Sc2cc3c(cc2-c2ccoc2)OCO3)nc2c(N)ncnc21 [Compound 4C-14, 8-(6-(furan-3-yl)benzo[d][1,3]dioxol-5-ylthio)-9-(2-(neopentylamino)ethyl)-9H-purin-6-amine] — 0.80 log units higher, 8.00

Reference: patent publication US10172863B2, “Purine derivatives useful as HSP90 inhibitors” (Sloan-Kettering Institute for Cancer Research, priority 2009, dated 2019)
